Legend:
myeloperoxidase = biological target: T1, myeloperoxidase (Homo sapiens, UniProt P05164); assay: Nitration of HDL by the myeloperoxidase-H2O2-NO2- system (3-nitrotyrosine formation, absorbance at 430 nm); type: biochemical; conditions: 250 μM H2O2, 500 μM NO2-
T1 construct: from tissue; host or cells: human neutrophils
Protocol: FIG. 1 describes nitration of HDL by the myeloperoxidase-H2O2-nitrite system. (A,C) HDL (1 mg/ml protein) was incubated for 60 min or the indicated time at 37° C. in phosphate buffer (20 mM sodium phosphate, pH 7.4, 100 μM DTPA) supplemented with 50 nM myeloperoxidase, 250 μM H2O2 and 500 μM NO2^−. Where indicated, the concentrations of (B) NO2^− were varied. 3-Nitrotyrosine formation was monitored spectroscopically following alkalinization of the reaction mixture.
FIG. 2 describes the effect of Cl^− or taurine on HDL nitration by the myeloperoxidase-H2O2—NO2^− system or HOCl—NO2^−. HDL was exposed for 60 min at 37° C. to myeloperoxidase in phosphate buffer supplemented with 250 μM H2O2, 500 μM NO2^− and (A) the indicated concentration of Cl^− or (B) the indicated concentration of taurine and 100 mM Cl^−. […]
HDL oxidation in vitro. […] Concentrations of HOCl and H2O2 were determined spectrophotometrically (ε292=350 M^−1 cm^−1 ε240=39.4 M^−1 cm^−1) (48,49). 3-Nitrotyrosine formation in a 300 μL aliquot of the reaction mixture was determined in a microplate reader by monitoring absorbance at 430 nm following the addition of NaOH to adjust the pH>9.
Myeloperoxidase generates 3-nitrotyrosine in HDL protein under physiologically relevant in vitro conditions. […] We monitored the formation of 3-nitrotyrosine spectroscopically by quantifying absorbance of the alkalinized reaction mixture at 430 nm.

[1] = tested on: ABCA1-transfected BHK cells; assay: Cholesterol efflux from [3H]cholesterol-labeled ABCA1-transfected BHK cells; type: cell-based, hamster; conditions: for effect of oxidation of the acceptor on cholesterol efflux, compared with native acceptor: ABCA1-transfected BHK cells, acceptor oxidized with HOCl or H2O2
Protocol: (§1) FIG. 11 describes cholesterol efflux activities of native and HOCl-oxidized HDL, apo A-I, and peptide 18A. [^3H]Cholesterol-labeled mock-(A, C) or ABCA1-transfected (A-C) BHK cells were incubated for 4 h with native (Ctrl), H2O2-oxidized, or HOCl-oxidized HDL (20 µg/mL) or apo A-I (5 µg/mL) (A), for 2 h with 5 µg/mL apo A-I oxidized with the indicated mole ratio of HOCl (B), or for 2 h with control (−) or HOCl-oxidized (+) peptide Ac-18A-NH2 (20 µg/mL) (C). At the end of the incubation, [^3H]cholesterol efflux to the acceptor particle was measured. *P<0.01 compared with controls.
(§2) Cell Culture and Cholesterol Efflux. Baby hamster kidney (BHK) cells expressing mifepristone-inducible human ABCA1 were generated as previously described (35). Cellular cholesterol was labeled by adding 1 μCi/mL [^31H]cholesterol (NEN Life Science Products) to the growth medium. Twenty four hours later, strong expression of ABCA1 was induced by incubating the cells for 20 h with DMEM containing 1 mg/mL bovine serum albumin (DMEM/BSA) and 1 nM mifepristone (Vaughan et al., 2003. J Lipid Res 44:1373-1380). To measure cholesterol efflux, mock- or ABCA1-transfected cells were incubated with DMEM/BSA without or with HDL, apo A-I, or peptide. After 2 to 4 h, the medium and cells were assayed for [^3H]cholesterol as described (Id.). Cholesterol efflux mediated by HDL, apo A-I, or peptide was calculated as the percentage of total [^31H]cholesterol (medium plus cell) released into the medium after subtracting the value obtained with DMEM/BSA alone.
We exposed HDL or purified apo A-I to HOCl or H2O2 (80:1 or 25:1, mol/mol, oxidant:HDL particle or oxidant:apo A-I) in a physiological buffer (138 mM NaCl, 2.7 mM KCl, 10 mM sodium phosphate) at neutral pH for 120 min at 37° C., terminating the reaction with a 20-fold molar excess (relative to oxidant) of methionine. […]

[2] = tested on: mock-transfected BHK cells (low ABCA1); assay: Cholesterol efflux from [3H]cholesterol-labeled mock-transfected BHK cells; type: cell-based, hamster; conditions: 2 to 4 h incubation
Protocol: as §1
as §2, with “To measure cholesterol efflux, mock- or ABCA1-transfected cells were incubated with DMEM/BSA without or with HDL, apo A-I, or peptide. After 2 to 4 h, the medium and cells were assayed for [^3H]cholesterol as described (Id.).” left out, “alone. […]” for “alone.”

T1 sequence (P05164 279-745 limits assumed): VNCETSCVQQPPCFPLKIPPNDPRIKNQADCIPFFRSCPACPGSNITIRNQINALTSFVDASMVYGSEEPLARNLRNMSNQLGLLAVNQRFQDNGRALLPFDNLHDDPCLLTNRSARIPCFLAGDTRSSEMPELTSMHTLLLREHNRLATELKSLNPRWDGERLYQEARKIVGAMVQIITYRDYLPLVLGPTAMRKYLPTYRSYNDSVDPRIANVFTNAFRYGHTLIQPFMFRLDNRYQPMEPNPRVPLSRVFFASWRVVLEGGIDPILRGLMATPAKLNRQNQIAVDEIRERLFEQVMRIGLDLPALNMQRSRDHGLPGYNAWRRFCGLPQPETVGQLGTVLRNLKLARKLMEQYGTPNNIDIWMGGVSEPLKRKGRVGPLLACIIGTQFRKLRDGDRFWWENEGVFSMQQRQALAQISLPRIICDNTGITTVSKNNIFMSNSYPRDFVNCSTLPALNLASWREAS
T1 sequence (P05164 165-273 limits assumed): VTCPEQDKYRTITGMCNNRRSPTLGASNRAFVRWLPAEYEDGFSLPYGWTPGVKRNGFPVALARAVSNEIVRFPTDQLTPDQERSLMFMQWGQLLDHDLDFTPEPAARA

Compound	effect of oxidation of the acceptor on cholesterol efflux, compared with native acceptor [1]	cholesterol efflux to the acceptor [2]	further results
catalase			effect on HDL nitration (3-nitrotyrosine formation) (myeloperoxidase; 1 mg/ml HDL, 50 nM myeloperoxidase, pH 7.4, 37° C., catalase 200 nM, sodium azide 10 mM): inhibited
H2O2-oxidized apo A-I: purified apo A-I exposed to H2O2 (25:1 mol/mol oxidant:apo A-I)	no effect		
Acetyl-18A-NH2		promoted cholesterol efflux	
NCCS(=O)(=O)O [Taurine, 2-aminoethanesulfonic acid]			effect on HDL nitration (3-nitrotyrosine formation) in the presence of Cl- (myeloperoxidase; myeloperoxidase, 100 mM Cl-, 60 min, 37° C.): no effect
apo A-I: purified apolipoprotein A-I, HDL's major protein		essentially no cholesterol efflux activity	cholesterol efflux to the acceptor ([1]; ABCA1-transfected BHK cells (ABCA1 overexpressed), 2 to 4 h incubation): became active
HOCl-oxidized apo A-I: purified apo A-I exposed to HOCl (25:1 mol/mol oxidant:apo A-I)	significant decrease		

Reference: patent US7749729B2, “Methods for assessing the risk for development of cardiovascular disease” (University of Washington, priority 2004, dated 2010)
